# Assay results reported in PubChem BioAssay (NCI).
#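 These data come from cells grown in 96-well plates and exposed to compound for 48 hours at five concentrations. At the TGI there is no net growth.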
# Columns and labels:
# Test in all cases: DTP human tumour cell line panel, 48 h
# KM12 colon = tested on: KM12 colon
# SF-539 CNS = tested on: SF-539 CNS
# HOP-92 NSCLC = tested on: HOP-92 NSCLC
# SK-OV-3 ovarian = tested on: SK-OV-3 ovarian
# UACC-62 melanoma = tested on: UACC-62 melanoma
# SNB-75 CNS = tested on: SNB-75 CNS
# RXF 393 renal = tested on: RXF 393 renal
# OVCAR-8 ovarian = tested on: OVCAR-8 ovarian
# NCI-H522 lung = tested on: NCI-H522 lung
# OVCAR-3 ovarian = tested on: OVCAR-3 ovarian
# MCF7 breast = tested on: MCF7 breast
# OVCAR-4 ovarian = tested on: OVCAR-4 ovarian
# MALME-3M melanoma = tested on: MALME-3M melanoma
# BT-549 breast = tested on: BT-549 breast
# NCI-H226 lung = tested on: NCI-H226 lung
# RPMI-8226 leukemia = tested on: RPMI-8226 leukemia
# SF-295 CNS = tested on: SF-295 CNS
# LOX IMVI melanoma = tested on: LOX IMVI melanoma
# PC-3 prostate = tested on: PC-3 prostate
# MDA-MB-435 = tested on: MDA-MB-435
# M14 melanoma = tested on: M14 melanoma
# EKVX NSCLC = tested on: EKVX NSCLC
# SK-MEL-2 melanoma = tested on: SK-MEL-2 melanoma
# SN12C renal = tested on: SN12C renal
# NCI-H460 lung = tested on: NCI-H460 lung
# HOP-62 NSCLC = tested on: HOP-62 NSCLC
# T-47D breast = tested on: T-47D breast
# 786-0 renal = tested on: 786-0 renal
# NCI/ADR-RES ovarian = tested on: NCI/ADR-RES ovarian
# HCC-2998 colon = tested on: HCC-2998 colon
# SNB-19 CNS = tested on: SNB-19 CNS
# HS 578T breast = tested on: HS 578T breast
# HCT-116 colon = tested on: HCT-116 colon
# SR leukemia = tested on: SR leukemia
# TK-10 renal = tested on: TK-10 renal
# U251 CNS = tested on: U251 CNS
# ACHN renal = tested on: ACHN renal
# MDA-N = tested on: MDA-N
# UO-31 renal = tested on: UO-31 renal
# A498 renal = tested on: A498 renal
# CCRF-CEM leukemia = tested on: CCRF-CEM leukemia
# MOLT-4 leukemia = tested on: MOLT-4 leukemia
# UACC-257 melanoma = tested on: UACC-257 melanoma
# SW-620 colon = tested on: SW-620 colon
# IGROV1 ovarian = tested on: IGROV1 ovarian
# SK-MEL-5 melanoma = tested on: SK-MEL-5 melanoma
# MDA-MB-231 breast = tested on: MDA-MB-231 breast
# HL-60(TB) leukemia = tested on: HL-60(TB) leukemia
# CAKI-1 renal = tested on: CAKI-1 renal
# A549 NSCLC = tested on: A549 NSCLC
# HT29 colon = tested on: HT29 colon
# K-562 leukemia = tested on: K-562 leukemia
# SK-MEL-28 melanoma = tested on: SK-MEL-28 melanoma
# NCI-H23 lung = tested on: NCI-H23 lung
# SF-268 CNS = tested on: SF-268 CNS
# COLO 205 colon = tested on: COLO 205 colon
# HCT-15 colon = tested on: HCT-15 colon
# DU-145 prostate = tested on: DU-145 prostate
# OVCAR-5 ovarian = tested on: OVCAR-5 ovarian
smiles,measurement,setting,value
CC(=O)O[C@H]1CC[C@H]2[C@@H]3CCC4C(C)=NNC(=O)C4[C@H]3CC[C@]12C (some centres undefined),TGI,KM12 colon,> 100 µM
same,TGI,SF-539 CNS,> 100 µM
same,TGI,HOP-92 NSCLC,> 100 µM
same,TGI,SK-OV-3 ovarian,> 100 µM
same,TGI,UACC-62 melanoma,> 100 µM
same,TGI,SNB-75 CNS,33.7 µM
same,TGI,RXF 393 renal,> 100 µM
same,TGI,OVCAR-8 ovarian,> 100 µM
same,TGI,NCI-H522 lung,> 86.7 µM
same,TGI,OVCAR-3 ovarian,> 100 µM
same,TGI,MCF7 breast,> 100 µM
same,TGI,OVCAR-4 ovarian,> 100 µM
same,TGI,MALME-3M melanoma,> 100 µM
same,TGI,BT-549 breast,> 69.7 µM
same,TGI,NCI-H226 lung,> 100 µM
same,TGI,RPMI-8226 leukemia,> 100 µM
same,TGI,SF-295 CNS,> 100 µM
same,TGI,LOX IMVI melanoma,> 75.4 µM
same,TGI,PC-3 prostate,> 100 µM
same,TGI,MDA-MB-435,> 100 µM
same,TGI,M14 melanoma,> 100 µM
same,TGI,EKVX NSCLC,> 100 µM
same,TGI,SK-MEL-2 melanoma,> 100 µM
same,TGI,SN12C renal,> 100 µM
same,TGI,NCI-H460 lung,> 100 µM
same,TGI,HOP-62 NSCLC,57.6 µM
same,TGI,T-47D breast,> 100 µM
same,TGI,786-0 renal,> 100 µM
same,TGI,NCI/ADR-RES ovarian,> 100 µM
same,TGI,HCC-2998 colon,> 100 µM
same,TGI,SNB-19 CNS,> 82.9 µM
same,TGI,HS 578T breast,64.2 µM
same,TGI,HCT-116 colon,> 100 µM
same,TGI,SR leukemia,> 100 µM
same,TGI,TK-10 renal,> 100 µM
same,TGI,U251 CNS,> 100 µM
same,TGI,ACHN renal,> 100 µM
same,TGI,MDA-N,> 100 µM
same,TGI,UO-31 renal,> 100 µM
same,TGI,A498 renal,> 100 µM
same,TGI,CCRF-CEM leukemia,> 100 µM
same,TGI,MOLT-4 leukemia,> 100 µM
same,TGI,UACC-257 melanoma,> 100 µM
same,TGI,SW-620 colon,> 100 µM
same,TGI,IGROV1 ovarian,> 79.4 µM
same,TGI,SK-MEL-5 melanoma,> 100 µM
same,TGI,MDA-MB-231 breast,> 82.8 µM
same,TGI,HL-60(TB) leukemia,> 100 µM
same,TGI,CAKI-1 renal,> 100 µM
same,TGI,A549 NSCLC,> 100 µM
same,TGI,HT29 colon,> 100 µM
same,TGI,K-562 leukemia,> 100 µM
same,TGI,SK-MEL-28 melanoma,> 100 µM
same,TGI,NCI-H23 lung,> 100 µM
same,TGI,SF-268 CNS,> 100 µM
same,TGI,COLO 205 colon,> 100 µM
same,TGI,HCT-15 colon,> 100 µM
same,TGI,DU-145 prostate,> 100 µM
same,TGI,OVCAR-5 ovarian,> 100 µM
